≈ marks a conversion by molar mass, not a printed value.
What was measured:
SH-SY5Y = experiment: (§1) Activation of NF-KappaB (unknown origin) expressed in SH-SY5Y cells co-transfected with pNFkappaB-Luc plasmid measured after 24 hrs by Bright-Glo luciferase assay; format: cell-based; conditions: Homo sapiens
[1] = as §1; format: cell-based; conditions: Homo sapiens
[2] = Toxicity in SOD1-G93A mutant-induced ALS C57BL/6 mouse model assessed as effect on animal survival at 50 mg/kg, ip; format: organism-based; conditions: in vivo
[3] = Drug uptake in plasma of SOD1-G93A mutant-induced ALS C57BL/6 mouse model at 50 mg/kg, ip measured within 30 mins; format: ADME, organism-based; conditions: in vivo, 0.5 h
[4] = Drug uptake in brain of SOD1-G93A mutant-induced ALS C57BL/6 mouse model at 50 mg/kg, ip measured within 30 mins; format: ADME, organism-based; conditions: in vivo, 0.5 h
[5] = Kinetic solubility of compound at pH 7.4 by shake flask method; format: physicochemical; conditions: buffer, read-out: Kinetic_solubility

SMILES	ECmax (SH-SY5Y) [µM]	EC50 [1] [nM]	Activity [2]	Drug uptake [3]	Drug uptake [4]	solubility kinetic [5] [µM]
O=C(/C=C\Nc1ccccc1Br)c1ccc2c(c1)OCO2	26	500	Non-Toxic	Active	Active	
COC(=O)c1ccc(-c2cnc(Nc3c(F)cccc3F)o2)cc1	42.6					
Cc1cccnc1Nc1nc(-c2ccccn2)cs1	40	210	Non-Toxic	Active	Active	
O=C(O)c1cccc(-c2cnc(Nc3ccccc3F)o2)c1	23.5					56 (≈ 16.7 µg/mL)

Source: ChEMBL document CHEMBL4406917, “Approaches for Prevention and Treatment of Neurodegenerative Diseases: ALS and Alzheimer's” (ACS Med Chem Lett, 2019)
